We go through one molecule from patent US20040266723A1, “Antiviral agents for treatment of Flaviviridae infections” (priority 2000, published 2004).

The nature of data set [1]: Cytotoxicity in MDBK cells. Type of data set: cell-based. From the text: (§1) Cytotoxicity testing can be carried out according to standard methods. MDBK, PBM, HepG2, Huh7 and Vero cells were used. […]. […] Afterwards the plates containing the dye are read at 490 nm. Each assay was done in triplicate. Such methodologies are well described and available from the manufacturer (Promega).

Data set [2] in a line: Cytotoxicity in HepG2 cells. In kind it is cell-based. To be noted: human. As to the method:
(§2) Cytotoxicity testing can be carried out according to standard methods. MDBK, PBM, HepG2, Huh7 and Vero cells were used. […]. After a three day-incubation, cell viability and mitochondrial activity are measured by adding the MTS-dye (Promega), followed by a 3 hours incubation. Afterwards the plates containing the dye are read at 490 nm. Each assay was done in triplicate. Such methodologies are well described and available from the manufacturer (Promega).

Data set [3] can be described thus: Cytotoxicity in CEM cells. As to conditions: human, CEM cells.
Data set [4] in a line: in vitro. Type of data set: cell-based. As to conditions: 7 days; read-out: PBMC 7 days CC50.
Source text: as §1

In data set [5] the test system is BVDV. In words: BVDV real time RT-PCR antiviral assay in MDBK cells. Type of data set: cell-based, Bovine viral diarrhea virus (BVDV), strain NADL. To be noted: dose-response, 24 hours post-infection. (In general: Real-time PCR tracks product formation cycle by cycle.)
In data set [6] the target is human IMPDH. In words: IMPDH inhibition (Ki). In kind it is biochemical. As to conditions: Table 2; read-out: IMPDH Ki.
In data set [7] the test system is BVDV. In words: BVDV real time RT-PCR antiviral assay in MDBK cells. Type of data set: cell-based, Bovine viral diarrhea virus (BVDV), strain NADL. As to the method:
As one illustration of this method, in the case of BVDV in MDBK cells, in a first step, viral RNA is isolated from 140 μL of the cell culture supernatant by means of a commercially available column (Viral RNA extraction kit, QiaGen, CA). The viral RNA is then eluted from the column to yield a total volume of 60 μL, and subsequently amplified with a quantitative RT-PCR protocol using a suitable primer for the BVDV NADL strain. A quenched fluorescent probe molecule is hybridized to the BVDV DNA, which then undergoes exonucleolytic degradation resulting in a detectable fluorescent signal. Therefore, the RT-PCR amplified DNA was detected in real time by monitoring the presence of fluorescence signals. The TaqMan probe molecule (5′ 6-fam-[…]-tamara 3′ [Sequence ID No. 7] and primers (sense: 5′-[…]-3′ [Sequence ID No. 8]; and antisense: 5′-[…]-3′ [Sequence ID No. 9]) were designed with the aid of the Primer Express software (PE-Applied Biosystems) to be complementary to the BVDV NADL NS5B region. A total of 10 μL of RNA was analyzed in a 50 μL RT-PCR mixture. Reagents and conditions used in quantitative PCR were purchased from PE-Applied Biosystems. The standard curve that was created using the undiluted inoculum virus ranged from 6000 plaque forming units (PFU) to 0.6 PFU per RT-PCR mixture.
Maldin-Darby bovine kidney (MDBK) cells were grown and maintained in a modified eagle medium (DMEM/F12; GibcoBRL), supplemented with 10% heat inactivated horse serum at 37° C. in a humidified, 5% CO2, incubator.
Bovine viral diarrhea virus (BVDV), strain NADL, causes a cytopathogenic effect (CPE) after infection of these cells.
Cells that were not treated with a test compound were considered a negative control, while ribavirin served as a positive control. Viral RNA was extracted and analyzed by real time RT-PCR.
Controls were Ribavirin and the polyoxymetalate HPA-023 in these experiments.

A short description of data set [8]: Cytotoxicity in Vero cells. Type of data set: cell-based. To be noted: African green monkey. How it is done:
as §2

[9] abbreviates: Bovine viral diarrhea virus isolates and strains, MDBK, 22 h.

Where two headings read alike, the source gives them in different places.

Turning to `NC(=O)c1ncn([C@@H]2O[C@H](CO)[C@@H](O)[C@H]2O)n1` [Ribavirin], in data set [1] (24 hrs), the 50% cytotoxic concentration (CC50) at 24 h is more than 100 µM. The CC50 at 3 days was 4 µM in data set [1] (Table 1), 5 µM in data set [1] (Table 2), 80 µM in data set [2] and more than 100 µM in data set [8]. Also, the values for the CC50 at 7 days in data set [3] and in data set [4] were 75 µM and more than 100 µM, respectively. For the same molecule, the “intracellular viral RNA reduction, relative effectiveness (FIG. 9)” value in data set [5] is “more effective than C2-MAD”. Also, the inhibition constant (Ki) in data set [6] came out at 0.2 µM. Also, the “max log reduction Viral Load” value in data set [7] (BVDV real time RT-PCR, MDBK cells, after 22 hours, tested at 40 μM) was >2 (40 μM) log. The molecule also yielded an EC50 in data set [7] (setting [9]) of 0.7 µM. In addition, the EC90 was 5 µM in data set [7] (setting [9]); 2 µM in data set [7] (Bovine viral diarrhea virus isolates and strains, MDBK, 24 h, read-out: Antiviral (24 hrs) EC90). Besides, the “Selectivity Index (24 hrs/24 hrs) CC50/EC90” value in data set [7] (MDBK CC50 24 hrs / antiviral EC90 24 hrs) was found to be 5. The “virus production / viral RNA versus negative control” value in data set [7] (MDBK cells, MOI 0.02, 22 hours, real time RT-PCR) is recorded as “almost complete absence of viral RNA”.

By CC50 is commonly meant the concentration giving 50% cytotoxicity. In general, Ki refers to the dissociation constant of the complex between target and ligand, obtained from inhibition or displacement. By EC50 is commonly meant the concentration giving half of the maximal effect. For orientation: EC90 means the concentration needed for an effect of 90%.
